Assays:
[1] = test system: Phosphorylation of ERK1/2 in AsPC-1 cells; experiment: Phospho-ERK1/2 MSD Assay; format: cell-based, human; conditions: Homo sapiens, ASPC1, 2 h, read-out: 2 h p-ERK (AsPC-1 cells), IC50
Method in brief: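 Read-out: MSD electrochemiluminescent detection of phosphorylated ERK1/2 in whole-cell lysates, fitted to a 4-parameter logistic curve for IC50. Prior to lysis, AsPC-1 cells (25,000 per well) received a 2 h compound dose-response at 37 °C.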

[2] = target: His-tagged KRAS G12D protein (Homo sapiens (Human), UniProt P01116, G12D); experiment: KRAS G12D TR-FRET Assay; format: binding; conditions: read-out: KRAS G12D Binding IC50
Chain of His-tagged KRAS G12D protein (P01116 other isoform, or with tags, fused parts or gaps G12D): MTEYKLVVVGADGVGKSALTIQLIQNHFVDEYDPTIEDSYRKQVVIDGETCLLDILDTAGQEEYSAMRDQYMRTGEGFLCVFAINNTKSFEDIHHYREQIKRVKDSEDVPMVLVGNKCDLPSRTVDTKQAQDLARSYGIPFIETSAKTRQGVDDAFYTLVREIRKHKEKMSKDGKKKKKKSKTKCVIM
Method in brief: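 His-tagged KRAS G12D (diluted to 20 nM in pH 7.4 HEPES buffer with 10 mM MgCl2 and 10 μM GDP) was preincubated with titrated compound for 30 min at room temperature. Biotinylated KRPep-2d peptide (diluted to 20 nM) was then added for 1 h, and displacement was monitored by TR-FRET.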

[3] = target: GDP-bound KRAS protein (aa 1-169), containing both G12D and C118A amino acid substitutions (Homo sapiens (Human), UniProt P01116, C118A/G12D); experiment: KRAS G12D Coupled Nucleotide Exchange Assay; format: biochemical; conditions: read-out: KRAS G12D Coupled Exchange IC50
Chain of GDP-bound KRAS protein (aa 1-169), containing both G12D and C118A amino acid substitutions (P01116 other isoform, or with tags, fused parts or gaps G12D/C118A): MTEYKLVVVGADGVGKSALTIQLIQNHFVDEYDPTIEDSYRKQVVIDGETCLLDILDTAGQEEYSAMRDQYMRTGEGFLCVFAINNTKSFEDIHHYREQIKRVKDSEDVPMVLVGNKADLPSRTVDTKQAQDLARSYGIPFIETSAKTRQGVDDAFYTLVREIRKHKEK

Row | Compound | IC50 [1] [nM] | IC50 [2] [nM] | IC50 [3] [nM]
1 | O=C1N[C@@H]2CN(C[C@@H]3C[C@@H]32)c2nc(OC[C@@]34CCCN3C[C@H](F)C4)nc3c(F)c(ncc23)-c2c(c(Cl)cc3[nH]ncc23)CCC[C@@H]1F [Example 174, (23S,26S,27S,29R)-18-chloro-23,32-difluoro-4-(((2R,7aS)-2-fluorotetrahydro-1H-pyrrolo[1,2-a]pyrrol-7a(5H)-yl)methoxy)-1,3,5,9,14,15,25-heptaazaheptacyclo[24.4.1.1~6,10~.0~2,7~.0~11,19~.0~12,16~.0~27,29~]dotriaconta-2,4,6,8,10(32), 11,13,16,18-nonaen-24-one] | 53.5 | 5 | 3
2 | O=C1OCCc2cccc3cccc(c23)-c2ncc3c(nc(OC[C@@]45CCCN4C[C@H](F)C5)nc3c2F)N2CCOC[C@H](C2)O1 [Example 201, (16S)-32-fluoro-8-(((2R,7aS)-2-fluorotetrahydro-1H-pyrrolo[1,2-a]pyrrol-7a(5H)-yl)methoxy)-14,17,19-trioxa-3,7,9,11-tetraazahexacyclo[20.7.1.1~2,6~.1~11,16~.0~5,10~.0~26,30~]dotriaconta-1(29),2(32),3,5,7,9,22,24,26(30),27-decaen-18-one] | 171 | 9 | 8
3 | C[C@@H](Oc1nc2c3cnc(c(F)c3n1)-c1c(c(Cl)cc3[nH]ncc13)CCCOC(=O)O[C@@H]1COCCN2C1)[C@@H]1CCCN1C [Example 203, (26S)-18-chloro-32-fluoro-4-((1R)-1-((2S)-1-methyl-2-pyrrolidinyl)ethoxy)-23,25,28-trioxa-1,3,5,9,14,15-hexaazahexacyclo[24.4.1.1~6,10~.0~2,7~.0~11,19~.0~12,16~]dotriaconta-2,4,6,8,10(32),11,13,16,18-nonaen-24-one] | 171 | 17 | 8
4 | C[C@H](Oc1nc2c3cnc(c(F)c3n1)-c1c(c(Cl)cc3[nH]ncc13)CCCOC(=O)O[C@@H]1COCCN2C1)[C@@H]1CCCN1C [Example 204, (26S)-18-chloro-32-fluoro-4-((1S)-1-((2S)-1-methyl-2-pyrrolidinyl)ethoxy)-23,25,28-trioxa-1,3,5,9,14,15-hexaazahexacyclo[24.4.1.1~6,10~.0~2,7~.0~11,19~.0~12,16~]dotriaconta-2,4,6,8,10(32),11,13,16,18-nonaen-24-one] | 429 | 34 | 16
5 | Cc1cc2[nH]ncc2c2c1CCOC(=O)OC1CC3(CCCN(C3)c3nc(OC[C@@H]4CCCN4C)nc4c(F)c-2ncc34)C1 [Example 205, (1R,3S)-32-fluoro-10-methyl-24-(((2S)-1-methyl-2-pyrrolidinyl)methoxy)-4,6-dioxa-13,14,19,23,25,27-hexaazaheptacyclo[25.3.1.1~1,3~.1~18,22~.0~9,17~.0~12,16~.0~21,26~]tritriaconta-9,11,14,16,18(32),19,21,23,25-nonaen-5-one] | 36.1 | 11 | 6
6 | Cc1cc2[nH]ncc2c2c1CCOC(=O)OC[C@H]1CN(CCO1)c1nc(OC[C@@]34CCCN3C[C@H](F)C4)nc3c(F)c-2ncc13 [Example 218] | 27.8 | 4 | 3
7 | Cc1cc2[nH]ncc2c2c1CCOC(=O)OC[C@@H]1CCN(C1)c1nc(OC[C@@]34CCCN3C[C@H](F)C4)nc3c(F)c-2ncc13 [Example 219] | 369 | 19 | 10
8 | Fc1c2ncc3c(nc(OC[C@@]45CCCN4C[C@H](F)C5)nc13)N1CC(COCCCCc3c(Cl)cc4[nH]ncc4c3-2)CC(F)(F)C1 (stereo partly drawn) [Example 229] | 342 | 27 | 12
9 | Fc1c2ncc3c(nc(OC[C@@]45CCCN4C[C@H](F)C5)nc13)N1CCCC(Cc3ncn(n3)CCc3c(Cl)cc4[nH]ncc4c3-2)C1 (stereo partly drawn) [Example 232] | 1340 | 31 | 18

The remaining lines, values ahead:

Row | IC50 [1] [nM] | IC50 [2] [nM] | IC50 [3] [nM] | Compound
10 | 381 | 15 | 8 | Cc1cc2[nH]ncc2c2c1C[C@H](C)CCOC[C@@H]1CCCN(C1)c1nc(OC[C@@]34CCCN3C[C@H](F)C4)nc3c(F)c-2ncc13 [Example 251, (12S,17R)-30-fluoro-24-(((2R,7aS)-2-fluorotetrahydro-1H-pyrrolo[1,2-a]pyrrol-7a(5H)-yl)methoxy)-9,12-dimethyl-15-oxa-5,6,21,23,25,29-hexaazahexacyclo[24.3.1.1~17,21~.0~2,10~.0~3,7~.0~22,27~]hentriaconta-1(30),2,4,7,9,22,24,26,28-nonaene]
11 | 926 | 28 | 17 | C[C@H]1CCOC[C@H]2CN(CCO2)c2nc(OC[C@@]34CCCN3C[C@H](F)C4)nc3c(F)c(ncc23)-c2c(c(Cl)cc3[nH]ncc23)C1 [Example 252, (12R,17R)-9-chloro-30-fluoro-24-(((2R,7aS)-2-fluorotetrahydro-1H-pyrrolo[1,2-a]pyrrol-7a(5H)-yl)methoxy)-12-methyl-15,18-dioxa-5,6,21,23,25,29-hexaazahexacyclo[24.3.1.1~17,21~.0~2,10~.0~3,7~.0~22,27~]hentriaconta-1(30),2,4,7,9,22,24,26,28-nonaene]
12 | 77.5 | 10 | 9 | Fc1c2ncc3c(nc(OC[C@@]45CCCN4C[C@H](F)C5)nc13)N1CCCC(C1)c1cnc(o1)CCCc1c(Cl)cc3[nH]ncc3c1-2 (stereo partly drawn) [Example 255]
13 | 42.4 | 6 | 4 | Fc1c2ncc3c(nc(OC[C@@]45CCCN4C[C@H](F)C5)nc13)N1CCOC[C@]3(C1)C[C@@H](C3)OCCCCc1c(Cl)cc3[nH]ncc3c1-2 [Example 263, (1S,3S)-10-chloro-33-fluoro-24-(((2R,7aS)-2-fluorotetrahydro-1H-pyrrolo[1,2-a]pyrrol-7a(5H)-yl)methoxy)-4,30-dioxa-13,14,19,23,25,27-hexaazaheptacyclo[25.4.1.1~1,3~.1~18,22~.0~9,17~.0~12,16~.0~21,26~]tetratriaconta-9,11,14,16,18(33),19,21,23,25-nonaene]
14 | 368 | 38 | 24 | Fc1c2ncc3c(nc(OC[C@@]45CCCN4C[C@H](F)C5)nc13)N1CCOC[C@]3(C1)C[C@H](C3)OCCCCc1c(Cl)cc3[nH]ncc3c1-2 [Example 264, (1R,3R)-10-chloro-33-fluoro-24-(((2R,7aS)-2-fluorotetrahydro-1H-pyrrolo[1,2-a]pyrrol-7a(5H)-yl)methoxy)-4,30-dioxa-13,14,19,23,25,27-hexaazaheptacyclo[25.4.1.1~1,3~.1~18,22~.0~9,17~.0~12,16~.0~21,26~]tetratriaconta-9,11,14,16,18(33),19,21,23,25-nonaene]
15 | 500 | 13 | 2 | O=C1COCCc2c(Cl)cc3[nH]ncc3c2-c2ncc3c(nc(OC[C@@]45CCCN4C[C@H](F)C5)nc3c2F)N2CCCC[C@H](C2)N1 [Example 271, (26R)-18-chloro-32-fluoro-4-(((2R,7aS)-2-fluorotetrahydro-1H-pyrrolo[1,2-a]pyrrol-7a(5H)-yl)methoxy)-22-oxa-1,3,5,9,14,15,25-heptaazahexacyclo[24.4.1.1~6,10~.0~2,7~.0~11,19~.0~12,16~]dotriaconta-2,4,6,8,10(32),11,13,16,18-nonaen-24-one]
16 | 1250 | 81 | 15 | CN1C(=O)OCCCc2c(Cl)cc3[nH]ncc3c2-c2ncc3c(nc(OC[C@@]45CCCN4C[C@H](F)C5)nc3c2F)N2C[C@@H](O)C[C@@H]1C2 [Example 286, (17R,19S)-9-chloro-30-fluoro-24-(((2R,7aS)-2-fluorotetrahydro-1H-pyrrolo[1,2-a]pyrrol-7a(5H)-yl)methoxy)-19-hydroxy-16-methyl-14-oxa-5,6,16,21,23,25,29-heptaazahexacyclo[24.3.1.1~17,21~.0~2,10~.0~3,7~.0~22,27~]hentriaconta-1(30),2,4,7,9,22,24,26,28-nonaen-15-one]
17 | 1230 | 26 | 5 | O=C1N[C@@H]2CCCCN(C2)c2nc(OC[C@@]34CCCN3C[C@H](F)C4)nc3c(F)c(ncc23)-c2c(c(Cl)cc3[nH]ncc23)CCCCO1 [Example 291, (27R)-18-chloro-33-fluoro-4-(((2R,7aS)-2-fluorotetrahydro-1H-pyrrolo[1,2-a]pyrrol-7a(5H)-yl)methoxy)-24-oxa-1,3,5,9,14,15,26-heptaazahexacyclo[25.4.1.1~6,10~.0~2,7~.0~11,19~.0~12,16~]tritriaconta-2,4,6(33),7,9,11,13,16,18-nonaen-25-one]
18 | 55.1 | 20 | 9 | Fc1c2ncc3c(nc(OC[C@@]45CCCN4C[C@H](F)C5)nc13)N1CCOC(C1)c1cnn(n1)CCCc1c(Cl)cc3[nH]ncc3c1-2 (stereo partly drawn) [Example 294, 9-chloro-31-fluoro-25-(((2R,7aS)-2-fluorotetrahydro-1H-pyrrolo[1,2-a]pyrrol-7a(5H)-yl)methoxy)-19-oxa-5,6,14,15,22,24,26,30,33-nonaazaheptacyclo[25.3.1.1~14,17~.1~18,22~.0~2,10~.0~3,7~.0~23,28~]tritriaconta-1(31),2,4,7,9,15,17(33),23,25,27,29-undecaene]
